# Test results: PubChem BioAssay (NCI)
# Where “and” joins values, the source holds several entries; their conditions need not be identical. Equal values may be shown once.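 Where inhibition never reached the appropriate level, the endpoint shown equals the highest concentration tested. Otherwise, values were interpolated linearly from a five-concentration, 48-hour dose response in 96-well plates. Abbreviation: GI50, concentration required for 50% inhibition of growth. TGI is the concentration that stops growth completely.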
# Experiments:
# Assay in all cases: DTP human tumour cell line panel, 48 h
# ACHN renal = test system: ACHN renal
# HCT-116 colon = test system: HCT-116 colon
# HS 578T breast = test system: HS 578T breast
# HT29 colon = test system: HT29 colon
# M14 melanoma = test system: M14 melanoma
# MALME-3M melanoma = test system: MALME-3M melanoma
# NCI-H522 lung = test system: NCI-H522 lung
# OVCAR-8 ovarian = test system: OVCAR-8 ovarian
# RPMI-8226 leukemia = test system: RPMI-8226 leukemia
# RXF 393 renal = test system: RXF 393 renal
SMILES,GI50 (ACHN renal),TGI (ACHN renal),GI50 (HCT-116 colon),TGI (HCT-116 colon),GI50 (HS 578T breast),TGI (HS 578T breast),GI50 (HT29 colon),TGI (HT29 colon),GI50 (M14 melanoma),TGI (M14 melanoma),GI50 (MALME-3M melanoma),TGI (MALME-3M melanoma),GI50 (NCI-H522 lung),TGI (NCI-H522 lung),GI50 (OVCAR-8 ovarian),TGI (OVCAR-8 ovarian),GI50 (RPMI-8226 leukemia),TGI (RPMI-8226 leukemia),GI50 (RXF 393 renal),TGI (RXF 393 renal)
CCc1ccc(Oc2nccc(-c3c(-c4ccc(F)cc4)ncn3C3CCNCC3)n2)cc1,4.77 µM,13.6 µM,5.84 µM,13.9 µM,7.01 µM,17.1 µM,3.84 µM,8.15 µM,5.46 µM,10.8 µM,4.62 µM,9.13 µM,4.73 µM,8.67 µM,4.7 µM,10.6 µM,5.77 µM,14.9 µM,3.99 µM,7.49 µM
Cc1cc(N2CCN(C)CC2)nc(N(CCNc2ccnc3cc(Cl)ccc23)Cc2ccco2)n1,5.08 µM,17.5 µM,2.6 µM,10.4 µM,4.42 µM,35.7 µM,2.47 µM,10.4 µM,1.78 µM,3.3 µM,1.94 µM,3.71 µM,3.51 µM,13.3 µM,5.33 µM,19.8 µM,2.18 µM,5.72 µM,1.82 µM,4.88 µM
COc1cc(-c2ccc(Nc3ccccc3C(=O)O)c(OC)c2)ccc1Nc1ccccc1C(=O)O,,> 94.6 µM,,23.6 µM,,> 100 µM,,> 100 µM,,> 100 µM,,> 100 µM,,66.6 µM,,81.5 µM,,> 95.8 µM,,83.3 µM
CCOC(=O)c1c(C(F)(F)F)n([O-])c2ccc(Cl)cc2[n+]1=O,1.69 µM,3.14 µM,1.86 µM,3.43 µM,2.17 µM,5.13 µM,1.9 µM,3.83 µM,2.02 µM,4.48 µM,1.73 µM,3.42 µM,2.11 µM,4.3 µM,2.06 µM,3.9 µM,2.07 µM,5.13 µM,1.82 µM,3.77 µM
N#Cc1ccc(N2Cc3cc(Cl)ccc3OC3=C2C(=O)N(Cc2ccc(F)cc2)C3=O)cc1,0.479 µM,0.913 µM,0.275 µM,0.934 µM,1.02 µM,13.6 µM,0.587 µM,1.35 µM,2.81 µM,9.33 µM,0.559 µM,1.13 µM,0.475 µM,1.01 µM,1.43 µM,3.12 µM,0.252 µM,0.814 µM,0.481 µM,0.943 µM
O=C1c2ccccc2C(=O)c2c(NCCNCCO)ccc(NCCNCCO)c21,2.05 µM and 0.967 µM and 1.39 µM,49 µM and 13 µM and > 44.8 µM,0.715 µM and 0.908 µM and 0.934 µM,6.79 µM and 6.81 µM and 11.2 µM,0.333 µM and 0.208 µM and 1.22 µM,2.49 µM and 4.02 µM and 5.69 µM,1.32 µM and 2.3 µM and 1.64 µM,7.42 µM and 12.1 µM and 5.1 µM,1.9 µM and 2.64 µM and 1.7 µM,8.52 µM and 13.6 µM and 11.6 µM,1.6 µM and 1.18 µM and 1.21 µM,4.97 µM and 6.88 µM and 3.85 µM,0.482 µM and 0.452 µM and 0.267 µM,5.48 µM and 2.22 µM and 1.32 µM,0.349 µM and 0.718 µM and 0.821 µM,6.5 µM and 6.81 µM and 6.08 µM,1.49 µM and 3.37 µM and 1.8 µM,12.2 µM and 33 µM and 10.9 µM,0.322 µM and 2.43 µM and 1.92 µM,2 µM and 10.8 µM and 7.68 µM
O=S(=O)(CC(O)C(Cl)(Cl)Cl)NNc1ccccc1 (configuration not stated),,> 100 µM,,> 100 µM,,> 100 µM,,> 100 µM,,> 100 µM,,> 100 µM,,> 100 µM,,> 100 µM,,> 100 µM,,> 100 µM
O=C1/C(=C\c2ccc([N+](=O)[O-])cc2)CS(=O)(=O)C/C1=C/c1ccc([N+](=O)[O-])cc1,0.19 µM,0.405 µM and 2.19 µM,0.0821 µM,0.227 µM and 1.28 µM,0.447 µM,39.4 µM,0.127 µM,0.382 µM and 2.77 µM,0.131 µM,0.331 µM and 2.51 µM,0.32 µM,2.12 µM,0.168 µM,0.398 µM and 1.29 µM,0.0764 µM,0.93 µM,,0.547 µM,,1.45 µM
CCCCCCCCCCCCNC(=O)[C@H]1CSC(c2cc(Br)cs2)N1 (some centres not stated),2.01 µM,6.54 µM,0.909 µM,1.74 µM,1.09 µM,2.51 µM,1.59 µM,5.76 µM,0.858 µM,1.65 µM,3.68 µM,10.2 µM,1.37 µM,4.31 µM,1.58 µM,4.67 µM,1.38 µM,3.61 µM,1.18 µM,2.6 µM
[CH3][Sn]([CH3])([CH3])[O]C(=O)C(O)c1ccccc1 (configuration not stated),4.27 µM,> 100 µM,3.58 µM,31.6 µM,11.5 µM,59.8 µM,3.45 µM,31.6 µM,1.98 µM,4.15 µM,5.6 µM,24.8 µM,2.6 µM,13.1 µM,4.65 µM,> 54.9 µM,3.38 µM,> 44.2 µM,3 µM,7.43 µM
O=C(N/N=C/c1ccncc1)c1ccc(C(F)(F)F)nc1Nc1cccc(C(F)(F)F)c1,3.46 µM,12.1 µM,1.4 µM,10.4 µM,2.02 µM,8.51 µM,3.43 µM,11 µM,1.34 µM,4.03 µM,2 µM,6.99 µM,2.7 µM,10.7 µM,2.39 µM,10.4 µM,0.514 µM,4.05 µM,1.51 µM,5.28 µM
O=Cc1c[nH]c2ccc(-c3csc4ccccc34)cc12,5.11 µM,> 100 µM,3.6 µM,> 100 µM,2.3 µM,9.55 µM,3.34 µM,> 100 µM,3.19 µM,> 100 µM,4.39 µM,37.5 µM,3.23 µM,> 100 µM,3.47 µM,> 100 µM,1.54 µM,7.49 µM,1.58 µM,5.13 µM
O=C(CCCCCNC1=CC(=O)c2ccccc2C1=O)NCCC[Te]c1ccccc1,0.408 µM,1.49 µM,0.295 µM,0.98 µM,0.364 µM,2.65 µM,0.377 µM,1.48 µM,0.473 µM,1.86 µM,2.21 µM,4.21 µM,1.75 µM,81.5 µM,0.446 µM,,0.291 µM,1.04 µM,1.54 µM,4.11 µM
CC(=O)Nc1c(I)c(C(=O)O)c(I)c(N(C)C(C)=O)c1I,> 100 µM,> 100 µM,> 100 µM,> 100 µM,46.4 µM,> 100 µM,> 100 µM,> 100 µM,> 100 µM,> 100 µM,> 100 µM,> 100 µM,> 100 µM,> 100 µM,> 100 µM,> 100 µM,> 100 µM,> 100 µM,> 100 µM,> 100 µM
O=C(NC1CCNCC1)c1[nH]ncc1NC(=O)c1c(Cl)cccc1Cl,2.95 µM and 3.03 µM,> 100 µM,0.315 µM and 0.285 µM,> 100 µM,0.307 µM and 0.329 µM,3.83 µM and > 2.71 µM,0.398 µM and 0.406 µM,6.29 µM and > 10 µM,1.25 µM and 0.792 µM,7.06 µM and 6.17 µM,0.325 µM and 0.257 µM,1.68 µM and 1.03 µM,0.387 µM and 0.28 µM,1.94 µM and 2.17 µM,0.659 µM and 0.66 µM,> 100 µM,0.329 µM and 0.313 µM,0.999 µM and > 2.62 µM,0.236 µM and 0.202 µM,0.635 µM and 0.464 µM
Cc1cc(NS(=O)(=O)c2ccc(NC(=O)COc3ccc(-c4cc5ccccc5[nH]4)cc3)cc2)no1,2.44 µM,6.9 µM,1.84 µM,5.01 µM,1.98 µM,4.98 µM,1.73 µM,3.44 µM,1.71 µM,4.32 µM,1.5 µM,3.85 µM,1.79 µM,4.09 µM,2.01 µM,4.77 µM,2.87 µM,> 100 µM,1.24 µM,2.6 µM
COc1cccc(C(C#N)NC23CC4CC(CC(C4)C2)C3)c1 (configuration not stated),,> 100 µM,,> 100 µM,,> 100 µM,,> 100 µM,,> 100 µM,,> 100 µM,,> 100 µM,,> 100 µM,,> 100 µM,,> 100 µM
COc1ccc(Oc2nc(Nc3ccc(N4CCOCC4)cc3)ncc2NC(=O)Nc2cc(OC)cc(OC)c2)cc1,4.23 µM,20.4 µM,1.14 µM,3.27 µM,8 µM,> 33.3 µM,1.42 µM,6.69 µM,3.02 µM,14.1 µM,0.969 µM,3.27 µM,3.94 µM,21.7 µM,4.65 µM,> 33.3 µM,5.21 µM,32.6 µM,1.54 µM,5.8 µM
C=C1C(=O)O[C@H]2[C@H]1CC/C(COC(=O)c1cccc3ccccc13)=C\CC[C@@]1(C)O[C@@H]21,1.52 µM,2.86 µM,1.23 µM,2.53 µM,1.98 µM,6.01 µM,0.696 µM,2.42 µM,1.42 µM,3.21 µM,1.76 µM,3.66 µM,1.66 µM,3.22 µM,1.7 µM,5.42 µM,1.35 µM,4.54 µM,1.05 µM,2.32 µM
